The text below walks through data of ChEMBL document CHEMBL1201862, “PubChem BioAssay data set” (2004).

One experiment deals with Beta-galactosidase (Escherichia coli, UniProt Q8VNN2). Briefly: Dose response counterscreen for EBI2 assay utilizing the enzyme, b-galactosidase. Format: functional.
The target of experiment [1] is T1, Corticotropin-releasing factor receptor 2/Corticotropin-releasing factor-binding protein (Homo sapiens, UniProt P24387+Q13324).
T1 sequence (Q13324 whole entry): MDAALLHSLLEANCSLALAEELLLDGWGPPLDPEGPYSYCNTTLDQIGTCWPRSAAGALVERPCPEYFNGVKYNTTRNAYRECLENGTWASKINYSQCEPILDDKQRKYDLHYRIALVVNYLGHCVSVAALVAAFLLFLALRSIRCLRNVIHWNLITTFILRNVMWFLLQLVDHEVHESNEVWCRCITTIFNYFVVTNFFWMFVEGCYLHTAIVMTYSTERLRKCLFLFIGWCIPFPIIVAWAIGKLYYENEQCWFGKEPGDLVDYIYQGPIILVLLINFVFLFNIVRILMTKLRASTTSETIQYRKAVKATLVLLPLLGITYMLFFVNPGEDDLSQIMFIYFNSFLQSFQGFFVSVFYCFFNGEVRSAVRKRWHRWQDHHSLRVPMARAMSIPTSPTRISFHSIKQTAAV
T1 sequence (P24387 whole entry): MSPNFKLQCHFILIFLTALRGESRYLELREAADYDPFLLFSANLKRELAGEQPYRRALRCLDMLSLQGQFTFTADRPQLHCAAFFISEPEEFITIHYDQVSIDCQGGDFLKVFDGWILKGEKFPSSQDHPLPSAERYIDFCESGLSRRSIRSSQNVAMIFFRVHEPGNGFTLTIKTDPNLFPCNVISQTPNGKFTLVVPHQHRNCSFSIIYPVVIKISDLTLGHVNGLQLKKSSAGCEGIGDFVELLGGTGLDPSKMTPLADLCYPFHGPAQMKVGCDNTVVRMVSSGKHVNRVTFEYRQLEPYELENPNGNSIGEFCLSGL
As to the kind of experiment: activators of CRF receptor 2 with binding protein – uHTS hits, confirmation (AID 602473). In kind it is functional. The note with it: read-out: EC50_Mean.

The nature of experiment [2]: blockers of CRF-binding protein–CRF-R2 complex – cell-based, uHTS hits, 384-well, dose response (AID 651639). In kind it is functional, Homo sapiens. The note with it: read-out: IC50_Mean.
For experiment [3], the target named is T1, Corticotropin-releasing factor receptor 2/Corticotropin-releasing factor-binding protein. As to the kind of experiment: Dose Response confirmation of uHTS hits for small molecule antagonists of the CRF-binding protein and CRF-R2 receptor complex. In kind it is functional. To be noted: read-out: IC50_Mean.
Experiment [4] can be described thus: cells. In kind it is functional, cell-based.
Experiment [5] has as its target T2, Nuclear receptor subfamily 0 group B member 1 (Homo sapiens, UniProt P51843).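 Further: HEK293T cells transfected with SF-1 and DAX-1 plus StAR promoter luciferase reporter.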
T2 sequence (P51843 whole entry): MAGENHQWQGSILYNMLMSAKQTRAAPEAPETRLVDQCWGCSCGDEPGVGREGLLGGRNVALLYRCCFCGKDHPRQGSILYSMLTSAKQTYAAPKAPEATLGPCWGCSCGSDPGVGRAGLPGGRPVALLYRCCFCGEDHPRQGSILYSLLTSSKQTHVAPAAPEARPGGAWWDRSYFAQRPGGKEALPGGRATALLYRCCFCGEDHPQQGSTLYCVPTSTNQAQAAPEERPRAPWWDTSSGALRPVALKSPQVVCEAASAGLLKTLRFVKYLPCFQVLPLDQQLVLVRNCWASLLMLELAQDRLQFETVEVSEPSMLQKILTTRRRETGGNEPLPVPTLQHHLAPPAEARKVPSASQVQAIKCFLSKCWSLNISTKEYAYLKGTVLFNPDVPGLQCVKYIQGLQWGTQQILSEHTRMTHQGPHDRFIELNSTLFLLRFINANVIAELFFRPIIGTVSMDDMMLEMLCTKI
In kind it is functional, cell-based.

Experiment [6] concerns the target Long-chain-fatty-acid--AMP ligase FadD28 (Mycobacterium tuberculosis, UniProt P9WQ59). Briefly: Fluorescence polarization aasay to screen for inhibitors that compete for the binding of FadD28 to a bisubstrate Measured in Biochemical System Using Plate Reader - 2147-01_Inhibitor_Dose_CherryPick_Activity. Format: functional, Mycobacterium tuberculosis H37Rv.
In experiment [7] the target is T3, Fatty acid synthase (Homo sapiens, UniProt P49327). Briefly: inhibition of human FAS-TE enzyme activity – biochemical, endpoint fluorescence intensity, uHTS hits, dose response (AID 624327).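 Further: fluorescence from hydrolysis of an O-methyl fluorescein acyl ester substrate by the enzyme.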 Format: functional.
Experiment [8] has as its target T3, Fatty acid synthase. Briefly: inhibition of human FAS-TE enzyme activity – biochemical, kinetic fluorescence intensity, dose response (AID 624326).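 Further: rate of fluorescence rise from hydrolysis of a fluorogenic O-methyl fluorescein ester substrate.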 In kind it is functional.
The target of experiment [9] is T4, Methionyl-tRNA synthetase, putative (Trypanosoma brucei brucei, UniProt Q38C91).
T4 sequence (Q38C91 whole entry): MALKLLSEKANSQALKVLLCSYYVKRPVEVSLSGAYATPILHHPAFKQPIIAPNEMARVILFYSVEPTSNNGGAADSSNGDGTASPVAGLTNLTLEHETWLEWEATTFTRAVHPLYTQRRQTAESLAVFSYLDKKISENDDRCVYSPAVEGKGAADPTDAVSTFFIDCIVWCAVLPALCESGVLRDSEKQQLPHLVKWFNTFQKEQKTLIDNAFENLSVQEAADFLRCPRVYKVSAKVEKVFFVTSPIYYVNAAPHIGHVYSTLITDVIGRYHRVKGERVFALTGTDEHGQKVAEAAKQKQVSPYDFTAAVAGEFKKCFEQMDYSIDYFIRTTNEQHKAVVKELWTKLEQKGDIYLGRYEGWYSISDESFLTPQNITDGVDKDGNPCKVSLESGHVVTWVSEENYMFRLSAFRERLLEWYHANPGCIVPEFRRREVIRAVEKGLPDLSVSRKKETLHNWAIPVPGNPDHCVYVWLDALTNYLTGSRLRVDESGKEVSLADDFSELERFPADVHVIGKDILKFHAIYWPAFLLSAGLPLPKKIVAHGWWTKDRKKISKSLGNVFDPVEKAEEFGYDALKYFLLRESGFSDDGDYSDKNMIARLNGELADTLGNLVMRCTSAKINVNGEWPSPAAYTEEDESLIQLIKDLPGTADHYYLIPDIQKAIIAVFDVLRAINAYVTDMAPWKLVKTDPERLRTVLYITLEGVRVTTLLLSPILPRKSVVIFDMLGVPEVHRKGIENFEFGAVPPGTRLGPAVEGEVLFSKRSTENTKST
Format: functional, Trypanosoma brucei brucei strain 927/4 GUTat10.1.

The nature of experiment [10]: Counterscreen for inhibitors of Trypanosoma brucei methionyl tRNA synthetase (MetRS): Luminescence-based cell-based high throughput dose response assay to identify compounds that are cytotoxic to Jurkat human T lymphocyte cells. In kind it is functional. On the technique in general: Counterscreens check selectivity or assay interference.
Experiment [11] addresses T4, Methionyl-tRNA synthetase, putative. Format: functional, Trypanosoma brucei brucei strain 927/4 GUTat10.1. This is another data set of the same source.
Experiment [12] has as its target Photoreceptor-specific nuclear receptor (Homo sapiens, UniProt Q9Y5X4). Format: functional, cell-based.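 Further: CHO-S cells with Gal4-NCOR and VP16-NR2E3 two-hybrid luciferase reporter.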
The target of experiment [13] is Nuclear receptor subfamily 5 group A member 2 (Homo sapiens, UniProt O00482). In kind it is functional, cell-based.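 Further: HEK293T cells transfected with LRH-1 and a StAR promoter luciferase reporter; potency for inhibitors that lower LRH-1 driven reporter light.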
Experiment [14] in a line: nonselective StAR promoter luciferase inhibitors – cell-based, luminescence, luciferase reporter, counter-screen for LRH-1 inverse agonist project, dose response (AID 651969). Format: functional. On the technique in general: Reporter assays use an easily measured gene product as a stand-in for the process of interest.
In a further experiment the target is Steroidogenic factor 1 (Homo sapiens, UniProt Q13285). As to the kind of experiment: Counterscreen for inverse agonists of the liver receptor homolog-1 (LRH-1; NR5A2): Luminescence-based cell-based high throughput dose response assay to identify inverse agonists of the Steroidogenic Factor 1 Nuclear Receptor (SF1; NR5A1). Format: functional.
A short description of experiment [15]: general cell-killing toxicity readout – plate reader, dry powder samples, cytotoxicity control for PAX8 inhibitor project, dose response (AID 743021). Format: functional, cell-based.
The nature of experiment [16]: cells.
The target of the next experiment is T5, Galanin receptor type 3 (Homo sapiens, UniProt O60755).
T5 sequence (O60755 whole entry): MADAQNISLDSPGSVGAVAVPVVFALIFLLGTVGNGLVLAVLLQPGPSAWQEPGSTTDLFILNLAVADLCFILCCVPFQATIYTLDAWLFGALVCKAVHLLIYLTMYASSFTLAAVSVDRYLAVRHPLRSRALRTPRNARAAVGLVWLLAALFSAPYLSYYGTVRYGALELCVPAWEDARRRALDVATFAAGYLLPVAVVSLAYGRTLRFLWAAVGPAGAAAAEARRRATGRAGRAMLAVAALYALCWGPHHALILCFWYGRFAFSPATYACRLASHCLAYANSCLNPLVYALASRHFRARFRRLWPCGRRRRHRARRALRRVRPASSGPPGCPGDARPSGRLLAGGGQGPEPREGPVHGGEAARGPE
Briefly: Fluorescence-based cell-based primary high throughput dose response assay to identify antagonists of the Galanin Receptor 3 (GalR3). In kind it is functional.

Experiment [17] is described as follows: cells. In kind it is functional, cell-based. To be noted: HEK-CNG.
The next experiment has as its target Major prion protein (Homo sapiens, UniProt P04156). Format: functional, cell-based.
The nature of experiment [18]: general mammalian cell viability loss – inhibitor set, cherry-pick, set 2, cytotoxicity control for miR-122 modulator project, dose response (AID 720697). Format: functional, cell-based.
In a further experiment the target is Protein Wnt-3a (Mus musculus, UniProt P27467). As to the kind of experiment: SAR analysis of small molecule antagonists of Gli-SUFU in a Wnt3a luminescent reporter assay. Format: functional.

Active and inactive are the calls of the source.

Regarding `Cc1ccc(NC2=CC(=O)CC(c3ccc(Cl)cc3)C2)cc1` (configuration not stated), the IC50 at Beta-galactosidase was > 80 µM (inactive).

As to `Nc1nnc(SCc2ccc(F)cc2Cl)s1`, in [1], the EC50 was > 53 µM (inactive). Moreover, the IC50 in [2] is 0.941 µM (active); in experiment [3] it was 14.3 µM (active).

Consider `CC1=C(C(=O)Nc2ccc(CC(=O)NCc3ccc(OC(C)C)cc3)cc2)SCCO1`, for which the IC50 (in “cells [4]”; in experiment [5]) was > 67.5 µM (inactive) throughout.

As for `O=C(CN1C(=O)S/C(=C\c2ccccc2)C1=O)Nc1cc([N+](=O)[O-])ccc1O`, in experiment [6], the AC50 was 61.2 µM (active). The IC50 on Fatty acid synthase [7] is 2.94 µM (active); on Fatty acid synthase [8], 1.83 µM (active).

On to `COc1cccc(NC(=O)CSc2nc3cc(Br)c[nH]c-3n2)c1`, for which the IC50 in experiment [9] was 4.03 µM (active); in experiment [10], 83.3 µM (inactive); in experiment [11], 2 µM (active); in [12] it was 0.377 µM (active).

With `COc1ccccc1N1CCN(C(=O)c2cc(-c3ccc(F)cc3)[nH]c2C)CC1`, at Beta-galactosidase, the IC50 is > 80 µM (inactive).

As to `COc1ccc(C2Nc3ccccc3C(=O)N2c2ccccc2)cc1CSc1ccccn1` (configuration not stated), the EC50 in [1] is > 53 µM (inactive). Besides, the IC50 in experiment [2] was 17.3 µM (active); in experiment [3] it was 2.16 µM (active).

For the compound `O=C(COc1ccc2c3c(c(=O)oc2c1)CCCC3)NCc1ccccn1`, the IC50 (in experiment [13]; in experiment [14]; at Steroidogenic factor 1) was 35.9 µM (inactive) in each case.

Take `Cn1c(SCC(=O)c2ccccc2)nnc1-c1ccccn1`: the AC50 in experiment [15] was 51 µM (active).

For `CCCc1cc(=O)oc2cc(C)cc(OCC(=O)NC3CC3)c12`, the IC50 was 1.31 µM (active) in experiment [13], 35.9 µM (inactive) in experiment [14] and 0.0932 µM (active) on Steroidogenic factor 1.

As for `C/C(=N\NC(=O)c1ccccc1O)c1cccs1`, the IC50 (in the experiment “cells [4]”; in [5]) was > 67.5 µM (inactive) in each case.

On to `Cc1cc(Br)cn2c(Cc3cccc(Cl)c3)c(-c3ccco3)nc12`, for which the IC50 in the experiment “cells [16]” is 66.2 µM (inactive); at Galanin receptor type 3 it was 8.41 µM (active); at Major prion protein it was 10.5 µM (inactive). Also, the EC50 in the experiment “cells [17]” was > 29.9 µM (inactive).

Regarding `N#Cc1ccc(-c2nc3ccc(Br)cn3c2Cc2cccc(F)c2)cc1`, the IC50 in the experiment “cells [16]” was > 138 µM (inactive); at Major prion protein it was 2.98 µM (active).

For the compound `O=c1c2c(O)cc(CSc3nnnn3-c3ccccc3)nc2[nH]n1-c1ccccc1`, the AC50 in [6] was > 100 µM (inactive).

For the compound `CNC(=O)C[C@@H]1CC[C@@H]2[C@H](COc3ccc(NC(=O)Nc4ccc(Cl)cc4)cc3C(=O)N2C)O1`, in experiment [18], the AC50 was 0.415 µM (active).

For `COc1ccccc1C(=O)N1C[C@@H]2[C@H](c3ccccc31)[C@H](CO)N2CC1CCCC1`, the half-maximal activity concentration (AC50) in experiment [18] was 9.28 µM (active).

With `CCC(C)Nc1cc(NC(=O)c2ccccc2)ncn1` (configuration not stated), the IC50 at Protein Wnt-3a is > 21.8 µM (inactive).

As for `CCN(CC)c1cc(NC(=O)c2ccccc2)nc(C)n1`, the IC50 on Protein Wnt-3a was > 21.8 µM (inactive).

As usually defined, the AC50 is the concentration giving half of the maximal activity seen.
